Measured values as given in patent EP0273272B1, “Pharmaceutical compositions containing 17-benzyl sparteine derivatives with a positive inotropic effect” (Kali-Chemie Pharma GmbH, priority 1986, dated 1988).

Experiments:
linken Herzvorhofes = assay: Functional refractory period of the isolated left atrium, paired electrical stimulation (antiarrhythmic effect); parameters: species or system Meerschweinchen; conditions: 0.3 h, concentration prolonging the functional refractory period to 125 % 18 min after application, guinea pig, read-out: Effektive Konzentration zur Erreichung von FRP 125 %
Text: Der Nachweis der antiarrhythmischen Wirkung der Wirksubstanzen erfolgte experimentell durch Bestimmung der funktionellen Refraktärzeit des linken Herzvorhofes von weiblichen Albino Pirbright-white Meerschweinchen der Gewichtsklasse 300 bis 400 g mit Hilfe der gepaarten elektrischen Stimulation in Anlehnung an die Methode von Govier (W.C. Govier, J. Pharmacol. Exp. Ther. 148 (1) (1965), 100 bis 105). In der nachfolgenden Tabelle 3 ist als FRP 125 % diejenige Konzentration in µmol/l angegeben, bei der es 18 min nach Substanzapplikation zu einer Verlängerung der funktionellen Refraktärzeit auf 125 % kommt.

Mäusen = assay: Determination of the minimal toxic dose in mice; format: in vivo
Protocol: Männlichen Mäusen von 20-25 g Gewicht werden p.o. Maximaldosen von 300 mg/kg der Testsubstanz verabreicht. Die Tiere werden 3 Stunden lang sorgfältig auf Toxizitätssymptome beobachtet. über einen Zeitraum von 24 Stunden nach der Applikation werden zusätzlich alle Symptome und Todesfälle registriert. Begleitsymptome werden ebenfalls beobachtet und registriert. Wenn Tod oder starke toxische Symptome beobachtet werden, werden weiteren Mäusen zunehmend geringere Dosen verabreicht, bis keine toxischen Symptome mehr auftreten. Die niedrigste Dosis, welche Tod oder starke toxische Symptome hervorruft, wird als minimale toxische Dosis in der nachfolgenden Tabelle 2 angegeben. Tabelle 2

[1] = tested on: spontan schlagenden, isolierten rechten Vorhöfen; assay: Heart rate of spontaneously beating isolated right atria; parameters: species or system Meerschweinchen; conditions: 20 min, concentration lowering the rate to 75 % of the initial value 20 min after application, guinea pig, read-out: Effektive Konzentration zur Erreichung von FRQ 75 %
Protocol: Der direkte Einfluß der Wirksubstanz auf die Herzfrequenz (FRQ) wurde an spontan schlagenden, isolierten rechten Vorhöfen von weiblichen Albino Pirbright-white Meerschweinchen der Gewichtsklasse von 300 bis 400 g geprüft. In Tabelle 3 ist als FRQ 75 % diejenige Konzentration in µmol/l angegeben, bei der es 20 min nach der Substanzgabe zu einer Abnahme der Frequenz auf 75 % des Ausgangwertes kommt. Tabelle 3

narkotisierten Ratten = assay: Myocardial oxygen consumption (double product, method of Neill) in anaesthetised rats; format: in vivo; conditions: used as dihydrochloride; for DP: double product (systolic pressure x heart rate); for FRQ: heart rate; for P₅: systolic blood pressure
Text: Die Wirkung der Substanzen auf Blutdruck und Herzfrequenz bei i.v.-Dauerinfusion in narkotisierten Ratten wird nach der Methode von Buschmann et al. (J. Cardiovascular Pharmacol. 2 777-781 (1980)) bestimmt.
Männliche Wistar-Ratten (330-370 g Körpergewicht) werden durch i.p.-Applikation von 1,25 g/kg Urethan narkotisiert und tracheotomiert. Nach einer Äquilibrierungsphase von 10 Minuten wird mit den Messungen begonnen. In einer Vorlaufphase von 5 Minuten werden die Ausgangswerte gemessen. Anschließend werden die Prüfsubstanzen gelöst in isotonischer Natriumschloridlösung (gegebenenfalls mit Zusatz eines Lösungsvermittlers) als Dauerinfusion i.v. appliziert, beginnend mit einer Dosis vom 0,01 µmol/kg/min. Die Dosis wird alle 10 Minuten ohne Erhöhung des Infusionsvolumens auf das 10-fache gesteigert. Eine Kontrollgruppe erhält nur wirkstofffreie Lösung appliziert.
In dem gleichen Versuchsmodell wurde auch der Einfluß der Wirksubstanzen auf den myokardialen Sauerstoffverbrauch an narkotisierten Ratten untersucht und anhand der Methode von Neill (Neill, W.Z., H.H. Levine, R.J. Wagman, R. Gorlin, Circulation Research 12 (1963), 163) berechnet. Dazu wird das Produkt aus systolischem Blutdruck und Herzfrequenz (= Doppelprodukt mm Hg x min⁻¹ x 0,01) berechnet. Wie aus der nachstehenden Tabelle 1A ersichtlich ist, reduzieren die Wirksubstanzen dieses Doppelprodukt und führen damit zu einer Sauerstoffeinsparung am Herzen. Tabelle 1A

[2] = mouse, in vivo, po, 300 mg/kg, 1440 min
[3] = anaesthetised rats, 6,6 µmol/kg i.v.
[4] = anaesthetised rats, 2,6 µmol/kg i.v.

Row | Structure (SMILES) | EC (FRP 125%) (linken Herzvorhofes) [µM] | Minimale toxische Dosis (Mäusen; [2]) [mg/kg] | EC (FRQ 75%) [1] [µM] | further results
1 | Cc1cccc(CC2C3CC(CN4CCCCC34)C3CCCCN32)c1F (centres unmarked) [Beispiel 523] | 2.69 | 300 | 0.95 | –
2 | Fc1ccc(CC2C3CC(CN4CCCCC34)C3CCCCN32)cc1 (centres unmarked) [Beispiel 511] | 2.47 | >300 | 5.12 | –
3 | COc1cccc(CC2C3CC(CN4CCCCC34)C3CCCCN32)c1 (centres unmarked) [Beispiel 502, 17-(3-Methoxybenzyl)-spartein] | 6.24 | 300 | 2.06 | Änderung DP (narkotisierten Ratten; change of double product versus pre-dose values, 6,6 µmol/kg i.v.): -29 Prozent; DP (narkotisierten Ratten; [3]): 312 mm Hg/ min x 100; FRQ (narkotisierten Ratten; [3]): 254 min⁻¹; P₅ (narkotisierten Ratten; [3]): 124 mm Hg
4 | Cc1ccc(CC2C3CC(CN4CCCCC34)C3CCCCN32)cc1 (centres unmarked) [Beispiel 519] | 3.24 | 300 | 1.9 | –
5 | Cc1cccc(CC2C3CC(CN4CCCCC34)C3CCCCN32)c1 (centres unmarked) [Beispiel 518] | 2.58 | >300 | 3.13 | –
6 | Fc1ccccc1CC1C2CC(CN3CCCCC23)C2CCCCN21 (centres unmarked) [Beispiel 509] | 2.83 | >300 | 4.09 | –
7 | COc1cccc(CC2C3CC(CN4CCCCC34)C3CCCCN32)c1OC (centres unmarked) [Beispiel 6, 17-(2,3-Dimethoxybenzyl)-spartein] | 3.39 | >300 | 4.85 | –
8 | c1ccc(CC2C3CC(CN4CCCCC34)C3CCCCN32)cc1 (centres unmarked) [Beispiel 500, 17-Benzylspartein] | 3.52 | – | 1.46 | Minimale toxische Dosis (Mäusen; p.o., male mice, maximal dose 300 mg/kg, observed 24 h, lowest dose causing death or strong toxic symptoms): >300 mg/kg
9 | Clc1ccccc1CC1C2CC(CN3CCCCC23)C2CCCCN21 (centres unmarked) [Beispiel 505] | 2.17 | 300 | 0.99 | Änderung DP (narkotisierten Ratten; change of double product versus pre-dose values, 2,6 µmol/kg i.v.): -26 Prozent; DP (narkotisierten Ratten; [4]): 376 mm Hg/ min x 100; FRQ (narkotisierten Ratten; [4]): 306 min⁻¹; P₅ (narkotisierten Ratten; [4]): 121 mm Hg
10 | COc1ccccc1CC1C2CC(CN3CCCCC23)C2CCCCN21 (centres unmarked) [Beispiel 501] | 3.71 | 300 | 4.69 | –
